# Source: patent publication US12209086B2, “FGFR3 inhibitor compounds” (ELI LILLY AND COMPANY, priority 2021, dated 2025)
# Molecular target: T1, FGFR3 protein (Homo sapiens, UniProt P22607)
# T1 construct: purchased Reaction Biology 1068
# Assay: FGFR3 enzyme assay (KinEASE-TK HTRF kinase assay)
# Format: biochemical
# Conditions: 0.25 nM enzyme, ATP at Km, 15 min pre-incubation on ice, 30 min at 30° C.
# Description: FGFR3 and FGFR1 Enzyme Assay
# Enzyme activity was monitored using the KinEASE™-TK Assay Kit (Cisflio, Cat. No. 62TK0PEC) according to the manufacturer's instructions. All assays were performed at the respective KmATP for each kinase in KinEASE™ Kinase Buffer.
# Titration of compounds were performed in a half-log manner in 100% dimethyl sulfoxide (DMSO) starting at 1 uM. Prior to the initiation of the reaction by adenosine triphosphate (ATP), FGFR1 protein and compounds were pre-incubated for 15 minutes at room temperature, and FGFR3 protein and compounds were pre-incubated on ice for 15 minutes. Reactions proceeded for 30 min at 30° C. Plates were quenched by the addition of the Anti-TK cryptate antibody/Streptavidin-XL665 mixture.
# Ratios were converted to a percent of control (POC) using a ratiometric emission factor. One hundred POC was determined using no test compound, and 0 POC was determined in the presence of 1 uM of an appropriate control inhibitor.
# T1 sequence (P22607 23-806): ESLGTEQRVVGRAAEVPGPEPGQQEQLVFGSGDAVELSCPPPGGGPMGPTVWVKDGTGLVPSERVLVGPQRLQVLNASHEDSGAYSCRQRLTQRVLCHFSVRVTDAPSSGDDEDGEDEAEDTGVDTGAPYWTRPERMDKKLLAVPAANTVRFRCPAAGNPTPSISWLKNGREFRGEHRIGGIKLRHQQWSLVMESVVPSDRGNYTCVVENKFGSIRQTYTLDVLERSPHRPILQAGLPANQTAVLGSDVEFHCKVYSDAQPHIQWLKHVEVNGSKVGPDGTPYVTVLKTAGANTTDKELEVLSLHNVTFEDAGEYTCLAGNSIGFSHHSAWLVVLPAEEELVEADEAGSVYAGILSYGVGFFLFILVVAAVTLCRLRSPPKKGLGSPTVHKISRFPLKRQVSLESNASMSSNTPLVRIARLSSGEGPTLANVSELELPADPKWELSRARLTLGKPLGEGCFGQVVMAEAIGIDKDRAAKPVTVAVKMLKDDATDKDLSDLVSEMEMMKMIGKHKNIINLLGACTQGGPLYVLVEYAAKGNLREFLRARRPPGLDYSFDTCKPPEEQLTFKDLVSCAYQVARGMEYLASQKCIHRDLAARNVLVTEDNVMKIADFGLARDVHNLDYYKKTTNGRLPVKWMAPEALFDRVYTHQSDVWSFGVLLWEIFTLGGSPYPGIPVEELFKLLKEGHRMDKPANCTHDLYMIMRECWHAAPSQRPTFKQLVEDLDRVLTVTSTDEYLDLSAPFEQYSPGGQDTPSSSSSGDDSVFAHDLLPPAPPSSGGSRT
row,IC50,Structure (SMILES)
1,< 0.05 µM,"Cc1c(-c2cc(OC(C)c3cncc(C(F)(F)F)c3)n3c(C#N)cnc3c2)nnn1C1CCN(C#N)CC1 (single isomer, unassigned; isomer 1) [Example 41, 7-[1-(1-Cyano-4-piperidyl)-5-methyl-triazol-4-yl]-5-[1-[5-(trifluoromethyl)-3-pyridyl]ethoxy]imidazo[1,2-a]pyridine-3-carbonitrile, Isomer 1]"
2,< 0.05 µM,"Cc1c(-c2cc(O[C@H](C)c3ccccn3)c3c(C#N)cnn3c2)nnn1C1CCN(C#N)CC1 [Example 169, 4-(4-[3-Cyano-4-[(1R)-1-(pyridin-2-yl)ethoxy]pyrazolo[1,5-a]pyridin-6-yl]-5-methyl-1,2,3-triazol-1-yl)piperidine-1-carbonitrile]"
3,< 0.05 µM,"Cc1c(-c2cc(O[C@H](C)c3ccnn3C)c3c(C#N)cnn3c2)cnn1C1CCN(C#N)CC1 [Example 189, 4-(4-[3-Cyano-4-[(1R)-1-(2-methylpyrazol-3-yl)ethoxy]pyrazolo [1,5-a]pyridin-6-yl]-5-methylpyrazol-1-yl)piperidine-1-carbonitrile]"
4,< 0.05 µM,"Cc1c(-c2cc(OC(CO)c3ccc(F)cn3)n3c(C#N)cnc3c2)nnn1C1CCN(C#N)CC1 (single isomer, unassigned; isomer 1) [Example 63, 7-[1-(1-Cyano-4-piperidyl)-5-methyl-triazol-4-yl]-5-[1-(5-fluoro-2-pyridyl)-2-hydroxy-ethoxy]imidazo[1,2-a]pyridine-3-carbonitrile, Isomer 1]"
